Source: US20140094462A1, “SONIC HEDGEHOG MODULATORS” (priority 2009, published 2014)

How the values were obtained:
ShhN protein = biological target: T1, ShhN protein (Homo sapiens, UniProt Q15465); assay: Surface Plasmon Resonance (SPR) protein binding assay on immobilized ShhN; conditions: SPR, Biacore T100, ShhN immobilized on CM4 chip, 25° C., compound 0.78 μM-25 μM; read-out: KD
T1 construct: auto-cleavage of full length Shh into an active 20 kD N-terminal fragment (ShhN); purchased R&D Systems
T1 sequence (Q15465 24-197 limits assumed, species assumed): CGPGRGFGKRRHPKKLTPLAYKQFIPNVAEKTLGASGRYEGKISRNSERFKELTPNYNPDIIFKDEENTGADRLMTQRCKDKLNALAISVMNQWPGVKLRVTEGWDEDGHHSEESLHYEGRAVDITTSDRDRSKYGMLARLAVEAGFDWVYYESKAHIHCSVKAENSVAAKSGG
Method: Biacore™ T100 (GE Healthcare, Uppsala, Sweden) was used to perform the experiments described herein. Sensor surface preparation and interaction analyses experiments were performed at 25° C.
Control surfaces were prepared similarly without protein derivatization and were utilized as a reference surfaces for compound binding experiments.
Zero concentration blank buffer cycles were included as negative control samples.
Data analysis was carried out using Biacore T100 evaluation software v1.1.1. […] Solvent correction was then applied as described previously.

C3H10T1/2 = assay: Induction of osteogenic differentiation (modulation of osteoblast differentiation); conditions: Mus musculus, C3H 10T1/2, read-out: IC50 (nM) C3H10T1/2
From the text: Using assays previously described in Dwyer et al., J. Biol. Chem. 282, (2007), 8959-68 and Nakamura et al., Biochm. […] Res. Comm., 237 (1997) 465-9, select compounds of the invention were screened for their ability to modulate osteoblast differentiation.

[1] = from C=CC[C@@H](C)C(=O)OC[C@H](NC(=O)C(F)(F)CC=C)c1ccccc1; rcm bond; toluene

Compound | Kd (ShhN protein) [nM] | IC50 (C3H10T1/2) [nM] | ring closure, yield of all isomers [1] [%]
O=C(C[C@@H]1C/C=C/CCC(=O)N[C@H](c2ccc(F)cc2)COC1=O)NCc1ccc(Cl)cc1 [Example CS, N-(4-chlorobenzyl)-2-((3R,11S,E)-3-(4-fluorophenyl)-5,12-dioxo-1-oxa-4-azacyclododec-8-en-11-yl)acetamide] | 100 to 1000 | < 100 | 
O=C(C[C@@H]1C/C=C/CCC(=O)N[C@H](c2ccc(Cl)cc2)COC1=O)NCc1ccc(Cl)cc1 [Example CX, N-(4-chlorobenzyl)-2-((3R,11S,E)-3-(4-chlorophenyl)-5,12-dioxo-1-oxa-4-azacyclododec-8-en-11-yl)acetamide] | < 100 | 100 to 1000 | 
O=C(C[C@@H]1C[C@H](O)[C@@H](O)CCC(=O)OC[C@@H]2CCCN2C1=O)NCc1ccc(Cl)cc1 [Example G, N-(4-chlorobenzyl)-2-((6S,7S,9S,14aS)-6,7-dihydroxy-3,10-dioxododecahydro-1H-pyrrolo[2,1-c][1,4]oxaazacyclododecin-9-yl)acetamide] | 100 to 1000 | 1000 to 100000 | 
CCN(CC)C(=O)C[C@@H]1C/C=C/CCC(=O)O[C@H](c2ccccc2)CNC1=O [Example DO, 2-((2R,6S,E)-5,12-dioxo-2-phenyl-1-oxa-4-azacyclododec-8-en-6-yl)-N,N-diethylacetamide] | < 100 | 1000 to 100000 | 
C[C@H]1C/C=C/C[C@@H](CC(=O)NCc2ccc(Cl)cc2)C(=O)NC[C@@H](c2ccccc2)OC1=O [Example DF, N-(4-chlorobenzyl)-2-((2R,6S,11S,E)-11-methyl-5,12-dioxo-2-phenyl-1-oxa-4-azacyclododec-8-en-6-yl)acetamide] | 100 to 1000 | 100 to 1000 | 
C[C@H]1[C@@H](c2ccccc2)OC(=O)CCCCC[C@@H](CC(=O)NCc2ccc(Cl)cc2)C(=O)N1C [Example DC, N-(4-chlorobenzyl)-2-((2R,3S,6S)-3,4-dimethyl-5,12-dioxo-2-phenyl-1-oxa-4-azacyclododecan-6-yl)acetamide] | 100 to 1000 | 100 to 1000 | 
O=C(C[C@@H]1C/C=C/CCC(=O)OC[C@@H]2CCCN2C1=O)NCc1ccc(Cl)cc1 [DP, N-(4-chlorobenzyl)-2-((9S,14aS,E)-3,10-dioxo-3,4,5,8,9,10,12,13,14,14a-decahydro-1H-pyrrolo[2,1-c][1,4]oxaazacyclododecin-9-yl)acetamide] | 1000 to 100000 | 1000 to 100000 | 
C[C@H]1CCCC[C@@H](CC(=O)NCc2ccc(Cl)cc2)C(=O)NC[C@@H](c2ccccc2)OC1=O [Example DB, N-(4-chlorobenzyl)-2-((2R,6S,11S)-11-methyl-5,12-dioxo-2-phenyl-1-oxa-4-azacyclododecan-6-yl)acetamide] | < 100 | 100 to 1000 | 

Continued, in another order:

Kd (ShhN protein) [nM] | IC50 (C3H10T1/2) [nM] | Compound | ring closure, yield of all isomers [1] [%]
< 100 | < 100 | CC(=O)N[C@@H]1C/C=C/CCC(=O)N[C@H](c2ccccc2)COC1=O [Example B, N-((3R,11R,E)-5,12-dioxo-3-phenyl-1-oxa-4-azacyclododec-8-en-11-yl)acetamide] | 
100 to 1000 | > 100000 | C[C@@H]1C/C=C/CC(F)(F)C(=O)N[C@H](c2ccccc2)COC1=O [Example K, (3R,11R,E)-6,6-difluoro-11-methyl-3-phenyl-1-oxa-4-azacyclododec-8-ene-5,12-dione] | 84
100 to 1000 | > 100000 | CC(=O)N[C@@H]1C/C=C/C[C@@H](C)C(=O)OC[C@@H](c2ccccc2)NC1=O [Example N, N-((3R,6R,11R,E)-11-methyl-5,12-dioxo-3-phenyl-1-oxa-4-azacyclododec-8-en-6-yl)acetamide] | 
100 to 1000 | 1000 to 100000 | C[C@H]1C/C=C/C[C@@H](CC(=O)NCc2ccc(Cl)cc2)C(=O)OC[C@@H](c2ccccc2)NC1=O [Example DI, N-(4-chlorobenzyl)-2-((3R,6S,11S,E)-6-methyl-5,12-dioxo-3-phenyl-1-oxa-4-azacyclododec-8-en-11-yl)acetamide] | 
